This is an account of results in US20230357310A1, “Saponin derivatives with improved therapeutic window” (priority 2019, published 2023).

A value given as a limit tells only on which side of the number the result lay.

Data set [1] is described as follows: Critical micellar concentration (ANS fluorescence). Conditions: comparison in words. It counts as physicochemical. As to the method:
The critical micellar concentration (CMC) of saponins derived from Saponaria officinalis (SO) (Table A7) and derived from Quillaja saponaria (QS) (Table A8, and Table A9) was determined by the method of DeVendittis et al. (A fluorimetric method for the estimation of the critical micelle concentration of surfactants, Analytical Biochemistry, Volume 115, Issue 2, August 1981, Pages 278-286) as follows:
The emission spectrum of 8-Anilinonaphthalene-1-sulfonic acid (ANS) in either purified water (MQ) or PBS (Dulbecco's PBS+/+) was determined at dry weight concentrations of saponins ranging from 1 to 1400 μM to cover the range below and above the CMC. Above the CMC, the fluorescence yield of ANS increases and the wavelength of maximum emission decreases due to portioning of the fluorescent dye into micelles. Fluorescence yields were recorded on a Fluoroskan Ascent FL (Thermo Scientific) at an excitation wavelength of 355 nm, and an emission wavelength of 460 nm. 6 μg at a concentration of 75.86 μM of ANS were used per sample and measurement.

The subject of the next data set is A431 cells. The format is cell-based. Particulars: A431, Table A6; read-out: IC50 nM (Toxicity).

In general, IC50 refers to the concentration that inhibits the measured activity by half. For the compound `CC(=O)OC1C(C)OC(OC2C(C)OC(OC(=O)[C@]34CCC(C)(C)CC3C3=CCC5[C@@]6(C)CC[C@H](OC7OC(C(=O)NCCN8C(=O)C=CC8=O)C(O)C(OC8OCC(O)C(O)C8O)C7OC7OC(CO)C(O)C(O)C7O)[C@@](C)(C=O)C6CC[C@@]5(C)[C@]3(C)C[C@H]4O)C(OC3OC(C)C(OC4OCC(O)C(OC5OC(CO)C(O)C(O)C5O)C4O)C(O)C3O)C2O)C(O)C1OC1OCC(O)C(O)C1O` (some centres unmarked) [SO1861-Glu-AEM], the “CMC compared with native (underivatised) saponin” value in data set [1] is reported as “lower CMC values”. The IC50 with A431 cells is above 100000 nM.
